How the values were obtained:
Conditions in all cases: incubation time: 72 h
[1] = system: SK-BR-3; assay: normalised response (% of control), CellTiter-Glo; higher = more viable cells (100 = DMSO, 0 = benzethonium chloride kill control)
Method in brief: (§1)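 Values are normalised signals, each belonging to one concentration of the series. Breast cancer cells (20 µl suspension) were seeded into 384-well plates with compound at 5 concentrations in 10-fold steps over a compound-specific 10,000-fold range and incubated 72 h. Readouts were CellTox Green fluorescence (485/520 nm), then CellTiter-Glo luminescence after 10 min at room temperature, with each plate set to 0.1 % DMSO as 100 and a positive kill control as 0.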

[2] = system: MDA-MB-231; assay: as above
Method in brief: as §1

[3] = system: CAL-148; assay: as above
Method in brief: as §1

[4] = system: MDA-MB-468; assay: as above
Method in brief: as §1

[5] = system: HDQ-P1; assay: as above
Method in brief: as §1

[6] = system: BT-474; assay: as above
Method in brief: as §1

[7] = system: BT-549; assay: as above
Method in brief: as §1

[8] = system: HCC1143; assay: as above
Method in brief: as §1

[9] = system: CAL-51; assay: as above
Method in brief: as §1

[10] = system: MDA-MB-231; assay: drug sensitivity score (DSS), CellTox Green (DSS (AUC-based score)); higher = stronger drug effect (viability inhibition or cytotoxicity); extreme values may be limits of the assay
Method in brief: (§2)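 Plates with 384 wells held compound at 5 concentrations in 10-fold steps over a 10,000-fold range specific to each compound. Breast cancer cell lines were added in 20 µl suspension and incubated 72 h, then read for CellTox Green and CellTiter-Glo signals, with each plate normalised to 0.1 % DMSO and a positive kill control. The drug sensitivity score is based on the area under the fitted dose-response curve.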

[11] = system: CAL-148; assay: as above
Method in brief: as §2

[12] = system: MDA-MB-468; assay: as above
Method in brief: as §2

[13] = system: HCC1599; assay: as above
Method in brief: as §2

[14] = system: CAL-120; assay: as above
Method in brief: as §2

[15] = system: HDQ-P1; assay: as above
Method in brief: as §2

[16] = system: BT-474; assay: as above
Method in brief: as §2

[17] = system: CAL-85-1; assay: as above
Method in brief: as §2

[18] = system: MDA-MB-453; assay: as above
Method in brief: as §2

[19] = system: BT-549; assay: as above
Method in brief: as §2

[20] = system: HCC1143; assay: as above
Method in brief: as §2

[21] = system: HCC1937; assay: as above
Method in brief: as §2

[22] = system: DU-4475; assay: as above
Method in brief: as §2

[23] = system: CAL-51; assay: as above
Method in brief: as §2

[24] = system: MCF-10A; assay: as above
Method in brief: as §2

[25] = system: MFM-223; assay: as above
Method in brief: as §2

SMILES | normalised response [1] [%] | normalised response [2] [%] | normalised response [3] [%] | normalised response [4] [%] | normalised response [5] [%] | normalised response [6] [%] | normalised response [7] [%] | normalised response [8] [%] | normalised response [9] [%] | drug sensitivity score [10] | drug sensitivity score [11] | drug sensitivity score [12] | drug sensitivity score [13] | drug sensitivity score [14] | drug sensitivity score [15] | drug sensitivity score [16] | drug sensitivity score [17] | drug sensitivity score [18] | drug sensitivity score [19] | drug sensitivity score [20] | drug sensitivity score [21] | drug sensitivity score [22] | drug sensitivity score [23] | drug sensitivity score [24] | drug sensitivity score [25]
CC(C)C[C@H](NC(=O)[C@H](CCc1ccccc1)NC(=O)CN1CCOCC1)C(=O)N[C@@H](Cc1ccccc1)C(=O)N[C@@H](CC(C)C)C(=O)[C@@]1(C)CO1 [Carfilzomib] (100 nM) | 3.27 | 0.22 | 0.66 | 0.79 | 0.29 | 0.61 | 1.4 | 8.24 | 2.57 | – | – | – | – | – | – | – | – | – | – | – | – | – | – | – | –
NC1(c2ccc(-c3nc4ccn5c(=O)[nH]nc5c4cc3-c3ccccc3)cc2)CCC1 [MK-2206] (100 nM) | 83.5 | 103 | 97 | 94.6 | 99.2 | 97.4 | 90.3 | 98.2 | 95.1 | – | – | – | – | – | – | – | – | – | – | – | – | – | – | – | –
CC(C)C(=O)Nc1ccc([N+](=O)[O-])c(C(F)(F)F)c1 [Flutamide] (1000 nM) | 93.9 | 101 | 99.9 | 96.9 | 101 | 103 | 103 | 100 | 93.2 | – | – | – | – | – | – | – | – | – | – | – | – | – | – | – | –
C[C@@H]1C[C@H]2[C@@H]3CCC4=CC(=O)C=C[C@]4(C)[C@@]3(F)[C@@H](O)C[C@]2(C)[C@@]1(O)C(=O)CO [Dexamethasone] (1000 nM) | 83.5 | 159 | 92.5 | 102 | 83.6 | 139 | 102 | 97.6 | 124 | – | – | – | – | – | – | – | – | – | – | – | – | – | – | – | –
CN1CCN(c2nc(C3=C(c4c[nH]c5ccccc45)C(=O)NC3=O)c3ccccc3n2)CC1 [Sotrastaurin] (1000 nM) | 90.9 | 108 | 88 | 91.6 | 93.5 | 105 | 101 | 92.5 | 122 | – | – | – | – | – | – | – | – | – | – | – | – | – | – | – | –
CCCCCOC(=O)Nc1nc(=O)n([C@@H]2O[C@H](C)[C@@H](O)[C@H]2O)cc1F [Capecitabine] (1000 nM) | 105 | 98.2 | 98.6 | 101 | 96.2 | 103 | 104 | 103 | 112 | – | – | – | – | – | – | – | – | – | – | – | – | – | – | – | –
O=C(c1cc(Cc2n[nH]c(=O)c3ccccc23)ccc1F)N1CCN(C(=O)C2CC2)CC1 [Olaparib] (1000 nM) | 92 | 88.7 | 83.1 | 91.8 | 96.6 | 87.6 | 94.9 | 94.8 | 98.5 | – | – | – | – | – | – | – | – | – | – | – | – | – | – | – | –
COc1cc2c(N3CCN(C(=O)Nc4ccc(OC(C)C)cc4)CC3)ncnc2cc1OCCCN1CCCCC1 [Tandutinib] (100 nM) | 98.4 | 106 | 101 | 103 | 102 | 105 | 103 | 103 | 96.2 | – | – | – | – | – | – | – | – | – | – | – | – | – | – | – | –
CO[C@H](C(=O)[C@@H](O)[C@@H](C)O)[C@@H]1Cc2cc3cc(O[C@H]4C[C@@H](O[C@@H]5C[C@@H](O)[C@H](O)[C@@H](C)O5)[C@H](O)[C@@H](C)O4)c(C)c(O)c3c(O)c2C(=O)[C@H]1O[C@H]1C[C@@H](O[C@@H]2C[C@@H](O)[C@@H](O[C@@H]3C[C@](C)(O)[C@H](O)[C@@H](C)O3)[C@@H](C)O2)[C@H](O)[C@@H](C)O1 [Plicamycin] (1000 nM) | 106 | 94.2 | 104 | 91 | 102 | 91 | 89.5 | 101 | 86.9 | – | – | – | – | – | – | – | – | – | – | – | – | – | – | – | –
COc1cc2c(Oc3ccc(NC(=O)C4(C(=O)Nc5ccc(F)cc5)CC4)cc3F)ccnc2cc1OCCCN1CCOCC1 [Foretinib] (100 nM) | 107 | 87 | 102 | 105 | 95.5 | 92.3 | 114 | 93.8 | 99.5 | – | – | – | – | – | – | – | – | – | – | – | – | – | – | – | –
Cn1nnc2c(C(N)=O)ncn2c1=O [Temozolomide] (1000 nM) | 92 | 93.3 | 97.6 | 91.8 | 98.8 | 95.4 | 101 | 98.1 | 76.4 | – | – | – | – | – | – | – | – | – | – | – | – | – | – | – | –
NC(=O)NO [Hydroxyurea] | – | – | – | – | – | – | – | – | – | 0 | 0 | 0 | 0 | 0 | 0 | 0 | 0 | 0 | 0 | 0 | 0 | 0 | 8.77 | 0 | 0
